biological target: ProfilerPro Kinase Selectivity Assay Kit kinases (Homo sapiens, UniProt P28482); type: biochemical; conditions: ERK2; 1 μM compound concentration
Sequence (P28482 2-360 limits assumed): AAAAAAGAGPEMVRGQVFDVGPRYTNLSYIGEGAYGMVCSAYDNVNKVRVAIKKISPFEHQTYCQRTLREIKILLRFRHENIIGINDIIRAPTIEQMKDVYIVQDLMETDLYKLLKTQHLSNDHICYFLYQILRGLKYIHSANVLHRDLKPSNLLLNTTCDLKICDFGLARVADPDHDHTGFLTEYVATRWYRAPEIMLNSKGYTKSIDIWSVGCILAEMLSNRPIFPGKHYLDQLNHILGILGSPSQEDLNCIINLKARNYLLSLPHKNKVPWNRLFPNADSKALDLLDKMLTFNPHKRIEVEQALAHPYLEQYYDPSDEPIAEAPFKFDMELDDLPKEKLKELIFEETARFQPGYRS
Description: (§1) Compounds were profiled using a LabChip® EZ Reader II platform and a ProfilerPro Kinase Selectivity Assay Kit (Caliper Lifesciences Inc., Hopkinton, Mass.). Compounds were tested at a concentration of 1 M in duplicate, with mean data reported as percent of control (POC).

Compound | POC (Percent of control) ERK2
Cc1nc(-c2cccnc2Nc2cccc3[nH]ncc23)c2nc[nH]c2n1 [Example 57, N-(3-(2-methyl-9H-purin-6-yl)pyridin-2-yl)-1H-indazol-4-amine] | 97 POC

biological target: ProfilerPro Kinase Selectivity Assay Kit kinases (Homo sapiens, UniProt O75116); type: biochemical; conditions: ROCK2; 1 μM compound concentration
Description: as §1

Compound | POC (Percent of control) ROCK2
Cc1nc(-c2cccnc2Nc2cccc3[nH]ncc23)c2nc[nH]c2n1 [Example 57, N-(3-(2-methyl-9H-purin-6-yl)pyridin-2-yl)-1H-indazol-4-amine] | 95 POC

biological target: ProfilerPro Kinase Selectivity Assay Kit kinases (Homo sapiens, UniProt P23443); type: biochemical; conditions: p70S6K; 1 μM compound concentration
Description: as §1

Compound | POC (Percent of control) p70S6K
Cc1nc(-c2cccnc2Nc2cccc3[nH]ncc23)c2nc[nH]c2n1 [Example 57, N-(3-(2-methyl-9H-purin-6-yl)pyridin-2-yl)-1H-indazol-4-amine] | 94 POC

biological target: ProfilerPro Kinase Selectivity Assay Kit kinases (Homo sapiens, UniProt Q16566); type: biochemical; conditions: CAMK4; 1 μM compound concentration
Description: as §1

Compound | POC (Percent of control) CAMK4
Cc1nc(-c2cccnc2Nc2cccc3[nH]ncc23)c2nc[nH]c2n1 [Example 57, N-(3-(2-methyl-9H-purin-6-yl)pyridin-2-yl)-1H-indazol-4-amine] | 93 POC

biological target: ProfilerPro Kinase Selectivity Assay Kit kinases (Homo sapiens, UniProt O00141); type: biochemical; conditions: SGK1; 1 μM compound concentration
Description: as §1

Compound | POC (Percent of control) SGK1
Cc1nc(-c2cccnc2Nc2cccc3[nH]ncc23)c2nc[nH]c2n1 [Example 57, N-(3-(2-methyl-9H-purin-6-yl)pyridin-2-yl)-1H-indazol-4-amine] | 92 POC

biological target: ProfilerPro Kinase Selectivity Assay Kit kinases (Homo sapiens, UniProt O14757); type: biochemical; conditions: CHK1; 1 μM compound concentration
Description: as §1

Compound | POC (Percent of control) CHK1
Cc1nc(-c2cccnc2Nc2cccc3[nH]ncc23)c2nc[nH]c2n1 [Example 57, N-(3-(2-methyl-9H-purin-6-yl)pyridin-2-yl)-1H-indazol-4-amine] | 106 POC

biological target: ProfilerPro Kinase Selectivity Assay Kit kinases (Homo sapiens, UniProt P07948); type: biochemical; conditions: LYN; 1 μM compound concentration
Sequence (P07948 2-512 limits assumed): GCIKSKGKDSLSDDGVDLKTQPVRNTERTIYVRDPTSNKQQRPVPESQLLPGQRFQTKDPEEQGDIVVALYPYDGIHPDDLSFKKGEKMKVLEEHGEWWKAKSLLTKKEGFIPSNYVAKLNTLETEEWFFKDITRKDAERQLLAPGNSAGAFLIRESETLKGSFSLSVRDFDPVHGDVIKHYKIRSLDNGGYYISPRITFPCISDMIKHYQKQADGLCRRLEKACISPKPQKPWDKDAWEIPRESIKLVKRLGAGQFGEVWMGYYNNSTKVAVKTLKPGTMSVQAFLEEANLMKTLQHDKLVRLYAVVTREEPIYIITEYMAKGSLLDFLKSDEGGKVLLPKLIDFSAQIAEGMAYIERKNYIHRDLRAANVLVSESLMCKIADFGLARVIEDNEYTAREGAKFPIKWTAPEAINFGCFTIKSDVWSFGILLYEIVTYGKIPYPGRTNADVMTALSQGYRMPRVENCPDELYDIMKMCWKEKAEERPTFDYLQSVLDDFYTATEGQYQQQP
Description: as §1

Compound | POC (Percent of control) LYN
Cc1nc(-c2cccnc2Nc2cccc3[nH]ncc23)c2nc[nH]c2n1 [Example 57, N-(3-(2-methyl-9H-purin-6-yl)pyridin-2-yl)-1H-indazol-4-amine] | 95 POC

tested on: ProfilerPro Kinase Selectivity Assay Kit kinases; type: biochemical; conditions: AMPK; 1 μM compound concentration
Description: as §1

Compound | POC (Percent of control) AMPK
Cc1nc(-c2cccnc2Nc2cccc3[nH]ncc23)c2nc[nH]c2n1 [Example 57, N-(3-(2-methyl-9H-purin-6-yl)pyridin-2-yl)-1H-indazol-4-amine] | 92 POC

same assay, conditions: CAMK2; 1 μM compound concentration

Compound | POC (Percent of control) CAMK2
Cc1nc(-c2cccnc2Nc2cccc3[nH]ncc23)c2nc[nH]c2n1 [Example 57, N-(3-(2-methyl-9H-purin-6-yl)pyridin-2-yl)-1H-indazol-4-amine] | 109 POC

same assay, conditions: PKC beta2; 1 μM compound concentration

Compound | POC (Percent of control) PKC beta2
Cc1nc(-c2cccnc2Nc2cccc3[nH]ncc23)c2nc[nH]c2n1 [Example 57, N-(3-(2-methyl-9H-purin-6-yl)pyridin-2-yl)-1H-indazol-4-amine] | 97 POC

same assay, conditions: TAK1; 1 μM compound concentration

Compound | POC (Percent of control) TAK1
Cc1nc(-c2cccnc2Nc2cccc3[nH]ncc23)c2nc[nH]c2n1 [Example 57, N-(3-(2-methyl-9H-purin-6-yl)pyridin-2-yl)-1H-indazol-4-amine] | 97 POC

biological target: ProfilerPro Kinase Selectivity Assay Kit kinases (Homo sapiens, UniProt P06239); type: biochemical; conditions: LCK; 1 μM compound concentration
Sequence (P06239 2-509 limits assumed): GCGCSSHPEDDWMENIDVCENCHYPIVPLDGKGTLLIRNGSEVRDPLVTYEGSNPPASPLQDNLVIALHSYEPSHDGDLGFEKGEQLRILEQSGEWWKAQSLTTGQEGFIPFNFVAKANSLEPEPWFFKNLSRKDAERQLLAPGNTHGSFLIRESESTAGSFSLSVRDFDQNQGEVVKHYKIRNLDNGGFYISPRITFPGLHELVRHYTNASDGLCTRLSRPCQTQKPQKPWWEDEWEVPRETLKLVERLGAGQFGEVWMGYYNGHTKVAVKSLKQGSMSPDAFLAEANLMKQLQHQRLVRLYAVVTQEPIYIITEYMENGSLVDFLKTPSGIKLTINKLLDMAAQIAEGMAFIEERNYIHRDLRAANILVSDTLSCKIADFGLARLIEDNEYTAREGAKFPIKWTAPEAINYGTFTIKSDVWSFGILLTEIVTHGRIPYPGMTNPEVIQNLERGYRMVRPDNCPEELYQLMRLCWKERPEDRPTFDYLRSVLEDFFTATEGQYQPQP
Description: as §1

Compound | POC (Percent of control) LCK
Cc1nc(-c2cccnc2Nc2cccc3[nH]ncc23)c2nc[nH]c2n1 [Example 57, N-(3-(2-methyl-9H-purin-6-yl)pyridin-2-yl)-1H-indazol-4-amine] | 96 POC

biological target: ProfilerPro Kinase Selectivity Assay Kit kinases (Homo sapiens, UniProt P49137); type: biochemical; conditions: MAPKAPK2; 1 μM compound concentration
Description: as §1

Compound | POC (Percent of control) MAPKAPK2
Cc1nc(-c2cccnc2Nc2cccc3[nH]ncc23)c2nc[nH]c2n1 [Example 57, N-(3-(2-methyl-9H-purin-6-yl)pyridin-2-yl)-1H-indazol-4-amine] | 99 POC

biological target: ProfilerPro Kinase Selectivity Assay Kit kinases (Homo sapiens, UniProt Q16539); type: biochemical; conditions: p38 alpha; 1 μM compound concentration
Sequence (Q16539 2-360 limits assumed): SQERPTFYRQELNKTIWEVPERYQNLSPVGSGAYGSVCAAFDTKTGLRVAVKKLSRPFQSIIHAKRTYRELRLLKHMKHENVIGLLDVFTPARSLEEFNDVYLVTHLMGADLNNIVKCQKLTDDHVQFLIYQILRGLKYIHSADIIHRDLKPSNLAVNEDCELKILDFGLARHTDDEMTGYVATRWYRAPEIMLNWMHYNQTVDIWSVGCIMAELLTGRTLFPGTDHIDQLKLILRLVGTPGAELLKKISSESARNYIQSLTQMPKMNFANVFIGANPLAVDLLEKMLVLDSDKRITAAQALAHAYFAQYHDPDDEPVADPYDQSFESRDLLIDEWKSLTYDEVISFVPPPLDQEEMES
Description: as §1

Compound | POC (Percent of control) p38 alpha
Cc1nc(-c2cccnc2Nc2cccc3[nH]ncc23)c2nc[nH]c2n1 [Example 57, N-(3-(2-methyl-9H-purin-6-yl)pyridin-2-yl)-1H-indazol-4-amine] | 100 POC

biological target: ProfilerPro Kinase Selectivity Assay Kit kinases (Homo sapiens, UniProt Q9P1W9); type: biochemical; conditions: PIM2; 1 μM compound concentration
Description: as §1

Compound | POC (Percent of control) PIM2
Cc1nc(-c2cccnc2Nc2cccc3[nH]ncc23)c2nc[nH]c2n1 [Example 57, N-(3-(2-methyl-9H-purin-6-yl)pyridin-2-yl)-1H-indazol-4-amine] | 94 POC

biological target: ProfilerPro Kinase Selectivity Assay Kit kinases (Homo sapiens, UniProt Q9BZL6); type: biochemical; conditions: PKD2; 1 μM compound concentration
Description: as §1

Compound | POC (Percent of control) PKD2
Cc1nc(-c2cccnc2Nc2cccc3[nH]ncc23)c2nc[nH]c2n1 [Example 57, N-(3-(2-methyl-9H-purin-6-yl)pyridin-2-yl)-1H-indazol-4-amine] | 97 POC

biological target: ProfilerPro Kinase Selectivity Assay Kit kinases (Homo sapiens, UniProt Q13976); type: biochemical; conditions: PKGa2; 1 μM compound concentration
Description: as §1

Compound | POC (Percent of control) PKGa2
Cc1nc(-c2cccnc2Nc2cccc3[nH]ncc23)c2nc[nH]c2n1 [Example 57, N-(3-(2-methyl-9H-purin-6-yl)pyridin-2-yl)-1H-indazol-4-amine] | 98 POC

biological target: ProfilerPro Kinase Selectivity Assay Kit kinases (Homo sapiens, UniProt Q13627); type: biochemical; conditions: DYRK1a; 1 μM compound concentration
Description: as §1

Compound | POC (Percent of control) DYRK1a
Cc1nc(-c2cccnc2Nc2cccc3[nH]ncc23)c2nc[nH]c2n1 [Example 57, N-(3-(2-methyl-9H-purin-6-yl)pyridin-2-yl)-1H-indazol-4-amine] | 91 POC

biological target: ProfilerPro Kinase Selectivity Assay Kit kinases (Homo sapiens, UniProt P00519); type: biochemical; conditions: ABL; 1 μM compound concentration
Description: as §1

Compound | POC (Percent of control) ABL
Cc1nc(-c2cccnc2Nc2cccc3[nH]ncc23)c2nc[nH]c2n1 [Example 57, N-(3-(2-methyl-9H-purin-6-yl)pyridin-2-yl)-1H-indazol-4-amine] | 94 POC

biological target: ProfilerPro Kinase Selectivity Assay Kit kinases (Homo sapiens, UniProt O75582); type: biochemical; conditions: MSK1; 1 μM compound concentration
Description: as §1

Compound | POC (Percent of control) MSK1
Cc1nc(-c2cccnc2Nc2cccc3[nH]ncc23)c2nc[nH]c2n1 [Example 57, N-(3-(2-methyl-9H-purin-6-yl)pyridin-2-yl)-1H-indazol-4-amine] | 101 POC

biological target: ProfilerPro Kinase Selectivity Assay Kit kinases (Homo sapiens, UniProt P08581); type: biochemical; conditions: cMET; 1 μM compound concentration
Description: as §1

Compound | POC (Percent of control) cMET
Cc1nc(-c2cccnc2Nc2cccc3[nH]ncc23)c2nc[nH]c2n1 [Example 57, N-(3-(2-methyl-9H-purin-6-yl)pyridin-2-yl)-1H-indazol-4-amine] | 100 POC

biological target: ProfilerPro Kinase Selectivity Assay Kit kinases (Homo sapiens, UniProt P35968); type: biochemical; conditions: KDR; 1 μM compound concentration
Sequence (P35968 20-1356 limits assumed): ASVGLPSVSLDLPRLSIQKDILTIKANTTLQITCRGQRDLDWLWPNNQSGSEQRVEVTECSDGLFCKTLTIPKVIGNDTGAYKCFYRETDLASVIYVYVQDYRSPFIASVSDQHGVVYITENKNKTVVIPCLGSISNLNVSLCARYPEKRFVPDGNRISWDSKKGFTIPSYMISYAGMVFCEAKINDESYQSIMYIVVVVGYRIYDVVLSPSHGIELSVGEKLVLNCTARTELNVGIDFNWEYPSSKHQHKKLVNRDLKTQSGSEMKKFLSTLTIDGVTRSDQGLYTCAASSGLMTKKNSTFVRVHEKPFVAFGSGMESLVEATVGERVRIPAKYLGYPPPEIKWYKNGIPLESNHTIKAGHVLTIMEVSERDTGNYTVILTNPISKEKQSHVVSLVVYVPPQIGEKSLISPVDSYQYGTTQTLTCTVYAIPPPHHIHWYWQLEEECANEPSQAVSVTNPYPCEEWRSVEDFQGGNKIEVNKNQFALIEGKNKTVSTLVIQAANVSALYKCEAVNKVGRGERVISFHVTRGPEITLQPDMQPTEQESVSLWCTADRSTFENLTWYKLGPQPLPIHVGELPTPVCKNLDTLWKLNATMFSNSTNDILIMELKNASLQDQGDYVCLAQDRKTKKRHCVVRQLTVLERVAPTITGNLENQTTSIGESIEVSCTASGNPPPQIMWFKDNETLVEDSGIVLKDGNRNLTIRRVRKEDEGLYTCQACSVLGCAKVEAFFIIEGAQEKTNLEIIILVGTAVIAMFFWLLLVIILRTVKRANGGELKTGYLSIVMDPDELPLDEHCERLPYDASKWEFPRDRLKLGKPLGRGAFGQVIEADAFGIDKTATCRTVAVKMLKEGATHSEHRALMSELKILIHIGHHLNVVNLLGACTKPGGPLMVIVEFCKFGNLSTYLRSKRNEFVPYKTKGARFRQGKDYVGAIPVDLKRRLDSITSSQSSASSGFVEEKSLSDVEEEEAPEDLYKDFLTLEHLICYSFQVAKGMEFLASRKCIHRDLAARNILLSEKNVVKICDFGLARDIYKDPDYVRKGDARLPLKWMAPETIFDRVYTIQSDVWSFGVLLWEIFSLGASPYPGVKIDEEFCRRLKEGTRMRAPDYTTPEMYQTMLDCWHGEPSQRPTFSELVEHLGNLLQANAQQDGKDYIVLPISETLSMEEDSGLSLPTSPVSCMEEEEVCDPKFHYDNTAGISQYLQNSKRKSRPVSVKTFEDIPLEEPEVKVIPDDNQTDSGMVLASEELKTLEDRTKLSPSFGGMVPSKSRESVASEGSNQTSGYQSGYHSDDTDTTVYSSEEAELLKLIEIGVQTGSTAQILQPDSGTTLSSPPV
Description: as §1

Compound | POC (Percent of control) KDR
Cc1nc(-c2cccnc2Nc2cccc3[nH]ncc23)c2nc[nH]c2n1 [Example 57, N-(3-(2-methyl-9H-purin-6-yl)pyridin-2-yl)-1H-indazol-4-amine] | 90 POC

biological target: ProfilerPro Kinase Selectivity Assay Kit kinases (Homo sapiens, UniProt Q9P0L2); type: biochemical; conditions: MARK1; 1 μM compound concentration
Description: as §1

Compound | POC (Percent of control) MARK1
Cc1nc(-c2cccnc2Nc2cccc3[nH]ncc23)c2nc[nH]c2n1 [Example 57, N-(3-(2-methyl-9H-purin-6-yl)pyridin-2-yl)-1H-indazol-4-amine] | 99 POC

biological target: ProfilerPro Kinase Selectivity Assay Kit kinases (Homo sapiens, UniProt P49841); type: biochemical; conditions: GSK3 beta; 1 μM compound concentration
Description: as §1

Compound | POC (Percent of control) GSK3 beta
Cc1nc(-c2cccnc2Nc2cccc3[nH]ncc23)c2nc[nH]c2n1 [Example 57, N-(3-(2-methyl-9H-purin-6-yl)pyridin-2-yl)-1H-indazol-4-amine] | 101 POC

biological target: ProfilerPro Kinase Selectivity Assay Kit kinases (Homo sapiens, UniProt P11362); type: biochemical; conditions: FGFR1; 1 μM compound concentration
Sequence (P11362 22-822 limits assumed): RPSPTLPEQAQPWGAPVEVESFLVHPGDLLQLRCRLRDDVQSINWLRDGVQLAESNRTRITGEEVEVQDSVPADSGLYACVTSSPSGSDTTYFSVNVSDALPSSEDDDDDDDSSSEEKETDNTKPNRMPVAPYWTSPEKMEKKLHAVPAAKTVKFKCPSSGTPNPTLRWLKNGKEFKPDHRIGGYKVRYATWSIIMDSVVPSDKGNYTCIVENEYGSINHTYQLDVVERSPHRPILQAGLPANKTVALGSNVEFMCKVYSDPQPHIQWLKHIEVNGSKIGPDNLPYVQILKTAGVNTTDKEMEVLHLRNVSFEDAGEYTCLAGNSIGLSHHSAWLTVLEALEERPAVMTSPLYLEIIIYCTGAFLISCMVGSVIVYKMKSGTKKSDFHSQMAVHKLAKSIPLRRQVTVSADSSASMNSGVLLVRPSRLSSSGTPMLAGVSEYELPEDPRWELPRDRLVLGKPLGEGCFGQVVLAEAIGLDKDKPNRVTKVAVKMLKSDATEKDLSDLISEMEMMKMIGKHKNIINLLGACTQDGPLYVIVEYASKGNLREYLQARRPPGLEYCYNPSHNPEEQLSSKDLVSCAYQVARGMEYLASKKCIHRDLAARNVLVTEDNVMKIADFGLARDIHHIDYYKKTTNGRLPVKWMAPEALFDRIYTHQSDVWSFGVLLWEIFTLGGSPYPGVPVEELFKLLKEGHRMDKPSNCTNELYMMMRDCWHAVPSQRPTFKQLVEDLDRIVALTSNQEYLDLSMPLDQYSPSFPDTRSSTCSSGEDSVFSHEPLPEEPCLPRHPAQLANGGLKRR
Description: as §1

Compound | POC (Percent of control) FGFR1
Cc1nc(-c2cccnc2Nc2cccc3[nH]ncc23)c2nc[nH]c2n1 [Example 57, N-(3-(2-methyl-9H-purin-6-yl)pyridin-2-yl)-1H-indazol-4-amine] | 95 POC

biological target: ProfilerPro Kinase Selectivity Assay Kit kinases (Homo sapiens, UniProt P04049); type: biochemical; conditions: cRAF; 1 μM compound concentration
Description: as §1

Compound | POC (Percent of control) cRAF
Cc1nc(-c2cccnc2Nc2cccc3[nH]ncc23)c2nc[nH]c2n1 [Example 57, N-(3-(2-methyl-9H-purin-6-yl)pyridin-2-yl)-1H-indazol-4-amine] | 100 POC

biological target: ProfilerPro Kinase Selectivity Assay Kit kinases (Homo sapiens, UniProt P36888); type: biochemical; conditions: FLT3; 1 μM compound concentration
Description: as §1

Compound | POC (Percent of control) FLT3
Cc1nc(-c2cccnc2Nc2cccc3[nH]ncc23)c2nc[nH]c2n1 [Example 57, N-(3-(2-methyl-9H-purin-6-yl)pyridin-2-yl)-1H-indazol-4-amine] | 92 POC

biological target: ProfilerPro Kinase Selectivity Assay Kit kinases (Homo sapiens, UniProt Q06187); type: biochemical; conditions: BTK; 1 μM compound concentration
Sequence (Q06187 2-659 limits assumed): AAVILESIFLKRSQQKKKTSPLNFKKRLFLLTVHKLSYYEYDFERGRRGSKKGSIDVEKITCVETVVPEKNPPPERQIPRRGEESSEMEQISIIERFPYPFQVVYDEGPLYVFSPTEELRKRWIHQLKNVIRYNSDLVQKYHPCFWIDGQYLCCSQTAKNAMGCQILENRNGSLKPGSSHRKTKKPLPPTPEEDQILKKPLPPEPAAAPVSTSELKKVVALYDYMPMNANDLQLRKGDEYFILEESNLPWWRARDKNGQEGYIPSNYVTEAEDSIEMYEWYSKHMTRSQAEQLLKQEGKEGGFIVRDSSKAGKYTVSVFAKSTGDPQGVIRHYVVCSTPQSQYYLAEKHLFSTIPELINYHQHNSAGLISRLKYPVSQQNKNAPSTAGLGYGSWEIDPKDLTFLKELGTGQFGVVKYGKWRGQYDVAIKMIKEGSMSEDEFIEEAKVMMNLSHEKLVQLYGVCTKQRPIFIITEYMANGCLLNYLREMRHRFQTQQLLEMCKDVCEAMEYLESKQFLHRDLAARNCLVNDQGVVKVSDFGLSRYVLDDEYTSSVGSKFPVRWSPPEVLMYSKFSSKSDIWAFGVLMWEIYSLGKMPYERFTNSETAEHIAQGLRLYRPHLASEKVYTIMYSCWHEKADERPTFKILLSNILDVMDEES
Description: as §1

Compound | POC (Percent of control) BTK
Cc1nc(-c2cccnc2Nc2cccc3[nH]ncc23)c2nc[nH]c2n1 [Example 57, N-(3-(2-methyl-9H-purin-6-yl)pyridin-2-yl)-1H-indazol-4-amine] | 98 POC

biological target: ProfilerPro Kinase Selectivity Assay Kit kinases (Homo sapiens, UniProt P31749); type: biochemical; conditions: AKT1; 1 μM compound concentration
Description: as §1

Compound | POC (Percent of control) AKT1
Cc1nc(-c2cccnc2Nc2cccc3[nH]ncc23)c2nc[nH]c2n1 [Example 57, N-(3-(2-methyl-9H-purin-6-yl)pyridin-2-yl)-1H-indazol-4-amine] | 102 POC

biological target: ProfilerPro Kinase Selectivity Assay Kit kinases (Homo sapiens, UniProt Q8IW41); type: biochemical; conditions: PRAK; 1 μM compound concentration
Description: as §1

Compound | POC (Percent of control) PRAK
Cc1nc(-c2cccnc2Nc2cccc3[nH]ncc23)c2nc[nH]c2n1 [Example 57, N-(3-(2-methyl-9H-purin-6-yl)pyridin-2-yl)-1H-indazol-4-amine] | 100 POC

biological target: ProfilerPro Kinase Selectivity Assay Kit kinases (Homo sapiens, UniProt P24941); type: biochemical; conditions: CDK2; 1 μM compound concentration
Description: as §1

Compound | POC (Percent of control) CDK2
Cc1nc(-c2cccnc2Nc2cccc3[nH]ncc23)c2nc[nH]c2n1 [Example 57, N-(3-(2-methyl-9H-purin-6-yl)pyridin-2-yl)-1H-indazol-4-amine] | 95 POC

biological target: ProfilerPro Kinase Selectivity Assay Kit kinases (Homo sapiens, UniProt Q05513); type: biochemical; conditions: PKC zeta; 1 μM compound concentration
Description: as §1

Compound | POC (Percent of control) PKC zeta
Cc1nc(-c2cccnc2Nc2cccc3[nH]ncc23)c2nc[nH]c2n1 [Example 57, N-(3-(2-methyl-9H-purin-6-yl)pyridin-2-yl)-1H-indazol-4-amine] | 100 POC

biological target: ProfilerPro Kinase Selectivity Assay Kit kinases (Homo sapiens, UniProt P27361); type: biochemical; conditions: ERK1; 1 μM compound concentration
Sequence (P27361 2-379 limits assumed): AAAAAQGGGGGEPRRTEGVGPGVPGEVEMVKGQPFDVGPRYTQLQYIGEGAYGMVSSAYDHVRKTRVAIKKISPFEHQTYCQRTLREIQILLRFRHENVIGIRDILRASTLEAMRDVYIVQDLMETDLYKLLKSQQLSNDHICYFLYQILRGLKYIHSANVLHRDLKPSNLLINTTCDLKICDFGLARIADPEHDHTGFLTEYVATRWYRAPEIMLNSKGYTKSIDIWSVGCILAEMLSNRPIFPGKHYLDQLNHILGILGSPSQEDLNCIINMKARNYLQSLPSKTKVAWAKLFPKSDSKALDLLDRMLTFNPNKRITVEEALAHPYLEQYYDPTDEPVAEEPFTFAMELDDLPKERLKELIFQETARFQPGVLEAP
Description: as §1

Compound | POC (Percent of control) ERK1
Cc1nc(-c2cccnc2Nc2cccc3[nH]ncc23)c2nc[nH]c2n1 [Example 57, N-(3-(2-methyl-9H-purin-6-yl)pyridin-2-yl)-1H-indazol-4-amine] | 100 POC

biological target: ProfilerPro Kinase Selectivity Assay Kit kinases (Homo sapiens, UniProt O96017); type: biochemical; conditions: CHK2; 1 μM compound concentration
Description: as §1

Compound | POC (Percent of control) CHK2
Cc1nc(-c2cccnc2Nc2cccc3[nH]ncc23)c2nc[nH]c2n1 [Example 57, N-(3-(2-methyl-9H-purin-6-yl)pyridin-2-yl)-1H-indazol-4-amine] | 98 POC

Source: US8772480B2, “Inhibitors of PI3 kinase and/or mTOR” (priority 2009, dated 2014)
